Data: ChEMBL document CHEMBL4828766 (J Med Chem, 2021)
Square brackets hold non-standard residues; d marks the D form. Peptide text beside a SMILES is read from it. dPhe(4-I) = N[C@H](Cc1ccc(I)cc1)C(=O)O; 2Nal = N[C@@H](Cc1ccc2ccccc2c1)C(=O)O; d2Nal = N[C@H](Cc1ccc2ccccc2c1)C(=O)O

Assays:
Assay type in all cases: functional, cell-based
Melanocortin receptor 4 [1] = target: T1, Melanocortin receptor 4 (Mus musculus, UniProt P56450); test: Antagonist activity at mouse melanocortin receptor 4 expressed in HEK293 cells assessed as inhibition of NDP-MSH-induced cAMP accumulation incubated for 2 hrs by cAMP Alpha-screen assay based Schild analysis; details: for Kb: read-out: pA2 (converted)
T1 sequence (P56450 whole entry): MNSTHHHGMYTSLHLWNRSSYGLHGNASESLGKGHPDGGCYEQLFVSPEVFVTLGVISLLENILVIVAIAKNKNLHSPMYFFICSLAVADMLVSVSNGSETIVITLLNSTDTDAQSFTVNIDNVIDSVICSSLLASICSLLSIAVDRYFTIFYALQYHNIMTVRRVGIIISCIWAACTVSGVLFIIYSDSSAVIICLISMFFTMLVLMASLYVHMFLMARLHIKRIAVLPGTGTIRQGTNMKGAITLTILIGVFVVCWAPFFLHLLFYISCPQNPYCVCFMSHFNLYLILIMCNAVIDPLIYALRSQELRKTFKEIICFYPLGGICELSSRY

Melanocortin receptor 4 [2] = target: T1, Melanocortin receptor 4; test: Agonist activity at mouse MC4R expressed in HEK293 cells assessed as induction of cAMP level incubated for 2 hr by alphaScreen assay
Melanocortin receptor 3 [3] = target: T2, Melanocortin receptor 3 (Mus musculus, UniProt P33033); test: Antagonist activity at mouse melanocortin receptor 3 expressed in HEK293 cells assessed as inhibition of NDP-MSH-induced cAMP accumulation incubated for 2 hrs by cAMP Alpha-screen assay based Schild analysis; details: for Kb: read-out: pA2 (converted)
T2 sequence (P33033 whole entry): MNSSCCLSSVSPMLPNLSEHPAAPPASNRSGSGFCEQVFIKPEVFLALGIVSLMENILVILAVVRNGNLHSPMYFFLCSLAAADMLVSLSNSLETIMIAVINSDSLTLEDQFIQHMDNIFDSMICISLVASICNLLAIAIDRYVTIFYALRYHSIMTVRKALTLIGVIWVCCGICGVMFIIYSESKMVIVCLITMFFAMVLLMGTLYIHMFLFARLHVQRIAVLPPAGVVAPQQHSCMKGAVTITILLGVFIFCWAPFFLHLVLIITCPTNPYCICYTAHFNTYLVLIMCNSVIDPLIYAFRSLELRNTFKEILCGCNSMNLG

[4] = target: Melanocyte-stimulating hormone receptor (Mus musculus) (UniProt Q01727); test: Agonist activity at mouse MC1R expressed in HEK293 cells assessed as induction of cAMP level at 100 uM incubated for 2 hr by alphaScreen assay relative to NDP-MSH
Sequence of Melanocyte-stimulating hormone receptor (Mus musculus) (Q01727 whole entry, looked up): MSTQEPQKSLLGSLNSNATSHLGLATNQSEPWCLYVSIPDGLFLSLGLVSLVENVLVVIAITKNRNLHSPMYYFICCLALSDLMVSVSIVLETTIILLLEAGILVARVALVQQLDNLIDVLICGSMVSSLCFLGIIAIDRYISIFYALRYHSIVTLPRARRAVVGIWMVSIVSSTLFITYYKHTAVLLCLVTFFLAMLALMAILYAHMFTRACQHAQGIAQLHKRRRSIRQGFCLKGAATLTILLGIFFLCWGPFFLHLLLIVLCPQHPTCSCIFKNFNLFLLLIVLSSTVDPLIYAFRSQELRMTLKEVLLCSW

Melanocortin receptor 3 [5] = target: T2, Melanocortin receptor 3; test: Agonist activity at mouse MC3R expressed in HEK293 cells assessed as induction of cAMP level incubated for 2 hr by alphaScreen assay
[6] = target: Melanocyte-stimulating hormone receptor (Mus musculus, UniProt Q01727); test: Agonist activity at mouse MC1R expressed in HEK293 cells assessed as induction of cAMP level at 100 uM incubated for 2 hr by alphaScreen assay
Sequence of Melanocyte-stimulating hormone receptor (Q01727 whole entry): as the sequence (Q01727 whole entry, looked up) above

Melanocortin receptor 5 = Melanocortin receptor 5 (Mus musculus, UniProt P41149); test: Agonist activity at mouse MC5R expressed in HEK293 cells assessed as induction of cAMP level at 100 uM incubated for 2 hr by alphaScreen assay
Sequence of Melanocortin receptor 5 (P41149 whole entry): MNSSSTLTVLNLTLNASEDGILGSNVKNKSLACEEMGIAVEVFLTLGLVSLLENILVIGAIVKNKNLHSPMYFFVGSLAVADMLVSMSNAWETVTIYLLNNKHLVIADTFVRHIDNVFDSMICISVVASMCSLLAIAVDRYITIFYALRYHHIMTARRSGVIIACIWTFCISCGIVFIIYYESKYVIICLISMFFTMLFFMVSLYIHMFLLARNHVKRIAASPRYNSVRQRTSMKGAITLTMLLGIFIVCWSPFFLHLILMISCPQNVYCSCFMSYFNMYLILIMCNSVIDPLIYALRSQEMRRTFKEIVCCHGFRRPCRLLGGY

[7] = target: Melanocortin receptor 4 (Mus musculus) (UniProt P56450); test: Agonist activity at mouse MC4R expressed in HEK293 cells assessed as induction of cAMP level at 100 uM incubated for 2 hr by alphaScreen assay relative to control
Sequence of Melanocortin receptor 4 (Mus musculus) (P56450 whole entry): as the sequence (P56450 whole entry) above

Structure (SMILES) | Kb (Melanocortin receptor 4 [1]) [µM] | EC50 (Melanocortin receptor 4 [2]) [µM] | Kb (Melanocortin receptor 3 [3]) [µM] | Activity [4] [%] | EC50 (Melanocortin receptor 3 [5]) [µM] | EC50 [6] [µM] | Ki (Melanocortin receptor 4 [1]) [µM] | EC50 (Melanocortin receptor 5) [µM] | Ki (Melanocortin receptor 3 [3]) [µM] | Activity ([4]; filed as agonist) [%] | Activity [7] [%]
CC(=O)N[C@H](Cc1ccc2ccccc2c1)C(=O)N[C@H](Cc1ccc2ccccc2c1)C(=O)N[C@H](Cc1ccc(I)cc1)C(=O)N[C@@H](CCCNC(=N)N)C(N)=O (Ac-[d2Nal][d2Nal][dPhe(4-I)]R-NH2) | > 3.16 | > 100 | > 3.16 | 25 | > 100 |  |  |  |  |  | 
CC(=O)N[C@H](Cc1ccc(I)cc1)C(=O)N[C@H](Cc1ccc2ccccc2c1)C(=O)N[C@@H](Cc1c[nH]c2ccccc12)C(=O)N[C@@H](CCCNC(=N)N)C(N)=O | 2.51 | > 100 | > 3.16 |  | > 100 | > 100 | 2.5 | > 100 |  |  | 
CC(=O)N[C@H](Cc1ccc(I)cc1)C(=O)N[C@H](Cc1ccc2ccccc2c1)C(=O)N[C@H](Cc1ccc2ccccc2c1)C(=O)N[C@@H](CCCNC(=N)N)C(N)=O (Ac-[dPhe(4-I)][d2Nal][d2Nal]R-NH2) | > 3.16 | > 100 | > 3.16 |  | > 100 | > 100 |  | 0.23 |  |  | 
CC(=O)N[C@H](Cc1ccc(I)cc1)C(=O)N[C@@H](CCCNC(=N)N)C(=O)N[C@H](Cc1ccc(I)cc1)C(=O)N[C@H](CCCCN)C(N)=O (Ac-[dPhe(4-I)]R[dPhe(4-I)][dK]-NH2) | 0.00316 | > 100 | 0.0316 |  | > 100 | 0.035 | 0.0032 | > 100 | 0.032 |  | 
CC(=O)N[C@H](Cc1ccc(I)cc1)C(=O)N[C@H](Cc1ccc2ccccc2c1)C(=O)N[C@H](Cc1ccc2ccccc2c1)C(=O)N[C@H](CCCCN)C(N)=O (Ac-[dPhe(4-I)][d2Nal][d2Nal][dK]-NH2) | 0.501 | > 100 | > 3.16 |  | > 100 |  |  | > 100 |  |  | 
CC(=O)N[C@H](Cc1ccc2ccccc2c1)C(=O)N[C@@H](CCCNC(=N)N)C(=O)N[C@H](Cc1ccc(I)cc1)C(=O)N[C@@H](CCCNC(=N)N)C(N)=O (Ac-[d2Nal]R[dPhe(4-I)]R-NH2) | 0.00251 | > 100 | 0.0794 |  | > 100 | 0.04 |  | > 100 |  |  | 
CC(=O)N[C@H](Cc1ccc2ccccc2c1)C(=O)N[C@H](Cc1ccc2ccccc2c1)C(=O)N[C@@H](Cc1ccc2ccccc2c1)C(=O)N[C@H](CCCCN)C(N)=O (Ac-[d2Nal][d2Nal][2Nal][dK]-NH2) | > 3.16 | > 100 | > 3.16 |  | > 100 |  |  | > 100 |  | 45 | 
CC(=O)N[C@H](Cc1ccc(I)cc1)C(=O)N[C@H](Cc1ccc2ccccc2c1)C(=O)N[C@@H](Cc1c[nH]c2ccccc12)C(=O)N[C@H](CCCCN)C(N)=O (Ac-[dPhe(4-I)][d2Nal]W[dK]-NH2) | 0.251 | > 100 | 2 |  | > 100 |  | 0.25 | > 100 | 2 | 65 | 
CC(=O)N[C@H](Cc1ccc2ccccc2c1)C(=O)N[C@@H](CCCNC(=N)N)C(=O)N[C@@H](Cc1c[nH]c2ccccc12)C(=O)N[C@@H](CCCNC(=N)N)C(N)=O (Ac-[d2Nal]RWR-NH2) | 0.00501 |  | 0.158 |  | > 100 |  |  | > 100 |  |  | 20
CC(=O)N[C@H](Cc1ccc2ccccc2c1)C(=O)N[C@@H](CCCNC(=N)N)C(=O)N[C@H](Cc1ccc(I)cc1)C(=O)N[C@H](CCCCN)C(N)=O | 0.00316 | > 100 | 0.126 |  | > 100 | 0.22 |  | > 100 |  |  | 
CC(=O)N[C@H](Cc1ccc2ccccc2c1)C(=O)N[C@H](Cc1ccc2ccccc2c1)C(=O)N[C@@H](Cc1c[nH]c2ccccc12)C(=O)N[C@H](CCCCN)C(N)=O (Ac-[d2Nal][d2Nal]W[dK]-NH2) | 0.2 |  | 1.58 | 25 | > 100 |  |  | > 100 |  |  | 30
CC(=O)N[C@H](Cc1ccc(I)cc1)C(=O)N[C@@H](CCCNC(=N)N)C(=O)N[C@@H](Cc1ccc2ccccc2c1)C(=O)N[C@H](Cc1ccc2ccccc2c1)C(N)=O (Ac-[dPhe(4-I)]R[2Nal][d2Nal]-NH2) | 0.2 | > 100 | > 3.16 |  | > 100 |  | 0.2 | > 100 |  | 55 | 
CC(=O)N[C@H](Cc1ccc2ccccc2c1)C(=O)N[C@H](Cc1ccc2ccccc2c1)C(=O)N[C@H](Cc1ccc(I)cc1)C(=O)N[C@H](CCCCN)C(N)=O (Ac-[d2Nal][d2Nal][dPhe(4-I)][dK]-NH2) | > 3.16 | > 100 | > 3.16 | 20 | > 100 |  |  | > 100 |  |  | 
CC(=O)N[C@H](Cc1ccc(I)cc1)C(=O)N[C@H](Cc1ccc2ccccc2c1)C(=O)N[C@@H](Cc1ccc2ccccc2c1)C(=O)N[C@@H](CCCNC(=N)N)C(N)=O (Ac-[dPhe(4-I)][d2Nal][2Nal]R-NH2) | 1.58 | > 100 | > 3.16 |  | > 100 |  | 1.6 | 0.8 |  |  | 
CC(=O)N[C@H](Cc1ccc(I)cc1)C(=O)N[C@@H](CCCNC(=N)N)C(=O)N[C@H](Cc1ccc(I)cc1)C(=O)N[C@@H](CCCNC(=N)N)C(N)=O (Ac-[dPhe(4-I)]R[dPhe(4-I)]R-NH2) | 0.00316 | > 100 | 0.0398 |  | > 100 | 0.007 | 0.0032 | > 100 | 0.04 |  | 
CC(=O)N[C@H](Cc1ccc(I)cc1)C(=O)N[C@@H](CCCNC(=N)N)C(=O)N[C@@H](Cc1c[nH]c2ccccc12)C(=O)N[C@H](CCCCN)C(N)=O (Ac-[dPhe(4-I)]RW[dK]-NH2) | 0.0251 | > 100 | 0.631 |  | > 100 | > 100 | 0.025 | > 100 | 0.63 |  | 
CC(=O)N[C@H](Cc1ccc(I)cc1)C(=O)N[C@H](Cc1ccc2ccccc2c1)C(=O)N[C@H](Cc1ccc(I)cc1)C(=O)N[C@H](CCCCN)C(N)=O | > 3.16 | > 100 | > 3.16 |  | > 100 | > 100 |  | > 100 |  |  | 
CC(=O)N[C@H](Cc1ccc(I)cc1)C(=O)N[C@H](Cc1ccc2ccccc2c1)C(=O)N[C@H](Cc1ccc(I)cc1)C(=O)N[C@@H](CCCNC(=N)N)C(N)=O (Ac-[dPhe(4-I)][d2Nal][dPhe(4-I)]R-NH2) | > 3.16 | > 100 | > 3.16 |  | > 100 |  |  |  |  | 40 | 
CC(=O)N[C@H](Cc1ccc2ccccc2c1)C(=O)N[C@H](Cc1ccc2ccccc2c1)C(=O)N[C@H](Cc1ccc2ccccc2c1)C(=O)N[C@H](CCCCN)C(N)=O (Ac-[d2Nal][d2Nal][d2Nal][dK]-NH2) | > 3.16 | > 100 | > 3.16 |  | > 100 |  |  | > 100 |  | 55 | 
CC(=O)N[C@H](Cc1ccc2ccccc2c1)C(=O)N[C@@H](CCCNC(=N)N)C(=O)N[C@@H](Cc1c[nH]c2ccccc12)C(=O)N[C@H](CCCCN)C(N)=O (Ac-[d2Nal]RW[dK]-NH2) | 0.02 | > 100 | 3.16 |  | > 100 | > 100 |  | > 100 |  |  | 
